Columns and labels:
[1] = biological target: T1, BTK-1h (Homo sapiens, UniProt Q06187); assay: High-throughput screening with 1h-labeled BTK; type: binding; settings: Dataset S2A; 200 μM compound, BTK-1h, 32 °C, 10 min
T1 construct: The BTK kinase domain was diluted to 2 μM in the buffer, and 2 μM 1h was added; made in house
Description: The collection was composed of BTK binding compounds obtained in our previous luminescence screen[37] (Data set S2). […] The resulting BTK-1h (50 μL) was added to the inhibitors.

[2] = biological target: BTK (Homo sapiens, UniProt Q06187); design: BTK kinase domain was expressed and purified as previously reported; made in house; method as in Reddi et al., J. Am. Chem. Soc. 2021, 143 (13), 4979–4992; settings: ref Reddi et al., J. Am. Chem. Soc. 2021, 143 (13), 4979–4992; cited from earlier work
Sequence of BTK (Q06187 402-655 limits assumed): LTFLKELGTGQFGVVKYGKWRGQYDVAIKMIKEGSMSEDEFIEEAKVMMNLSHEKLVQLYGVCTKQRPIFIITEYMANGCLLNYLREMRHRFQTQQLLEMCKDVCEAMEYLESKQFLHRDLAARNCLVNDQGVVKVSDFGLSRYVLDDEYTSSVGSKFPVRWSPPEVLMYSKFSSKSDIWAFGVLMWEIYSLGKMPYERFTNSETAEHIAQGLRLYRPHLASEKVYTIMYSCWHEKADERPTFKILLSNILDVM

T1 sequence (Q06187 402-655): as the sequence (Q06187 402-655 limits assumed) above

Row | SMILES | FI (650)/FI (620) [1] | FI (BTK-1h)/FI (BTK-1h+Inhibitor) at 620 nm [1] | BTK Inhibition reported in luminescence assay* [2]
1 | Cl.N/C(=N\N=C\c1ccc(Cl)cc1)N/N=C/c1ccc(Cl)cc1 [PCM-0215125-001] | 1.174 | 1.002 | 77.8
2 | C=CC(=O)Nc1ccc(CN2C(=O)N(c3cc(OC)cc(OC)c3)Cc3cnc(Nc4ccc(N5CCN(C)CC5)cc4)nc32)cc1 [PCM-0215559-001] | 1.072 | 1.041 | 88.3
3 | CN1CCN(c2ccc(C(=O)Nc3n[nH]c4ccc(Cc5cc(F)cc(F)c5)cc34)c(NC3CCOCC3)c2)CC1 [PCM-0215551-001] | 0.9755 | 1.038 | 102.8
4 | COc1nc2ccc(Br)cc2cc1[C@@H](c1ccccc1)[C@@](O)(CCN(C)C)c1cccc2ccccc12.O=C(O)/C=C/C(=O)O [PCM-0215093-001] | 1.148 | 1.067 | 84
5 | C=CC(=O)Nc1cccc(Nc2nc(Nc3ccc(NC4CN(CCF)C4)cc3OC)ncc2C(F)(F)F)c1 [PCM-0215208-001] | 1.1509 | 1.028 | 91
6 | Nc1cccc(-c2cc3c(Oc4cccc(O)c4)ncnc3[nH]2)c1 [PCM-0095147-003] | 1.616 | 1.107 | 82.1
7 | COc1cc(O)c2c(=O)cc(-c3ccc(O)c(O)c3)oc2c1 [PCM-0216461-001] | 2.385 | 1.063 | 61
8 | CC1=C(C(=O)OC(C)C)C(c2cccc([N+](=O)[O-])c2)C(C(=O)OC2CN(C(c3ccccc3)c3ccccc3)C2)=C(N)N1 (stereo not drawn) [PCM-0095544-002] | 1.1262 | 1.0184 | 70
9 | CCS(=O)(=O)N1CCN(c2ccc(Nc3ncc(C(N)=O)c(NC4CC4)n3)cc2)CC1.Cl [PCM-0215389-001] | 1.233 | 1.12 | 85.5
10 | NC(=O)Nc1cc(-c2cccc(F)c2)sc1C(=O)N[C@H]1CCCNC1 [PCM-0095092-003] | 1.105 | 1.137 | 86.9
11 | C#CC[C@H](c1nc2cc(Cl)ccc2c(=O)n1Nc1ccccc1)N(CCCN)C(=O)c1cccc(Cl)c1F [PCM-0095802-002] | 1.024 | 1.031 | 52.5
12 | O=C(/C=C/c1ccc(O)c(O)c1)c1ccc(O)cc1O [PCM-0095622-002] | 1.0597 | 1.03 | 55.2
13 | Cc1c[nH]c(/C=C2\C(=O)Nc3ccccc32)c1CCC(=O)O [PCM-0216652-001] | 1.505 | 1.061 | 83.4
14 | C[C@@H]1O[C@@H](O[C@H]2[C@H](O[C@H]3CC[C@@]4(C)[C@@H](CC[C@]5(C)[C@@H]4CC=C4[C@@H]6CC(C)(C)CC[C@]6(C(=O)O)CC[C@]45C)[C@]3(C)CO)OC[C@H](O[C@@H]3O[C@H](CO)[C@@H](O)[C@H](O)[C@H]3O)[C@@H]2O)[C@H](O)[C@H](O)[C@H]1O [PCM-0216539-001] | 0.7503 | 1.048 | 52.5
15 | C=CC(=O)Nc1cccc(C)c1Nc1ncc2cc(-c3c(Cl)c(OC)cc(OC)c3Cl)ccc2n1 [PCM-0215508-001] | 1.043 | 1.041 | 100.4
16 | O=C(NCCCNc1nc(Nc2cccc(NC(=O)N3CCCC3)c2)ncc1I)c1cccs1 [PCM-0095061-002] | 1.86 | 1.055 | 60
17 | C[n+]1cc2c3c(ccc2c2ccc4cc5c(cc4c21)OCO5)OCO3.[Cl-] [PCM-0065605-002] | 1.399 | 1.003 | 75.7

Reference: PMC8662641, “Site-Specific Labeling of Endogenous Proteins Using CoLDR Chemistry” (Journal of the American Chemical Society, 2021)
